Series [1] has as its system P. falciparum strain F32-TEM (F32-Tanzania). Nature of the series: In vitro antiplasmodial activity (SYBR Green fluorescence and [3H] hypoxanthine assays). Format: cell-based, Plasmodium falciparum. The note with it: strain F32-Tanzania (F32-TEM), mean of at least 4 experiments, SYBR Green and radioactivity assays, read-out: Antiplasmodial Activity on P. falciparum IC50 ± SEM. How it is done:
In vitro antiplasmodial activities of the synthesized hybrid molecules were evaluated against the P. falciparum strain F32-TEM (corresponding to the parental strain F32-Tanzania). Each molecule was tested at least in three independent experiments (except Aubis(5-Bn), tested twice) by a SYBR Green Fluorescence assay but also at least once with the standard chemosensitivity assay recommended by the WHO and based on the incorporation of [^3H] hypoxanthine.
For the SYBR Green Fluorescence assay, ring stage parasites were treated with the drugs for 48 h. Then, the pellets were washed twice with PBS and frozen at −20 °C. Thawed plates were incubated for 2 h at room temperature with the SYBR Green (Thermo-Fisher, Illkirch, France) lysis buffer (20 mm Tris base pH 7.5, 5 mm EDTA, 0.008% w/v saponin, 0.08% w/v Triton X-100). The plates were then read using a fluorescence plate reader (FLx800, BioTek, Illkirch, France) at an excitation wavelength of 485 nm and 535 nm for the emission wavelength. The IC50 values (concentration inhibiting 50% of the parasite’s growth) were determined using GraphPad Prism software 7 (GraphPad Software, San Diego, CA, USA).
For [^3H] hypoxanthine assay, ring stage parasites were incubated with the drug dilutions for 24 h, then, [^3H] hypoxanthine (50 μL/0.25 μCi; Perkin-Elmer, Courtaboeuf, France) was added for another 24 h period. After that, plates were frozen at −20 °C. The next step is to thaw the plates and to collect the nucleic acids. Tritium incorporation was then determined thanks to a β-counter (Perkin-Elmer, Courtaboeuf, France).
The antiplasmodial activities reported in Table 1 correspond thus to the mean of IC50 values from at least 4 independent experiments acquired by the two methods, SYBR Green and radioactivity.

The next series has as its system Vero cell line. Put plainly: Cytotoxicity on Vero cells (MTT). Format: cell-based, monkey. The note with it: Vero cells, 48 h, MTT; read-out: Cytotoxicity on Vero Cells IC50 ± SEM. How it is done:
The cells were cultured in MEM medium (Dutscher, Brumath, France) supplemented with 10% fetal bovine serum (Dutscher), 0.7 mM glutamine and 100 μg/mL gentamicin. The cells were seeded at 10^4 cells per well in a 96-well plates and incubated during 24 h. Then, cells were incubated for additional 48 h with the drugs. […] Subsequently, DMSO was added to the wells containing the cells and MTT to dissolve the formed crystals. The plates were then read to determine the absorbance at wavelength of 540 nm (µQuant, BioTek, Illkirch, France). Cell proliferation was calculated from at least three independent experiments using GraphPad Prism software 7 (GraphPad Software, San Diego, CA, USA). The cytotoxic/antiplasmodial activity ratio corresponds to the selectivity index.

The mark [2] stands for this setting: Plasmodium falciparum, F32, 48 h.

Structures are written as SMILES. Read-outs that look alike come from different tables or passages of the source.

By IC50 is commonly meant the midpoint of a concentration-inhibition curve. In the case of `C[C@@H]1CCC2[C@@H](C)[C@@H](OCCCn3cc[n+](-c4ccc5ccccc5n4)c3)O[C@@H]3O[C@@]4(C)CCC1[C@@]23OO4` (stereo partly drawn) [L3-Quin, 3′-Quinolin-2-yl-1′-[10β-(20-propoxy)dihydroartemisinin]1H-imidazol-3-ium bromide], the IC50 in series [1] (setting [2]) is 330 ± 69 nM.

For `C[C@@H]1CCC2[C@@H](C)[C@@H](OCCCCCn3cc[n+](-c4ccc5ccccc5n4)[c]3[Au-][c]3n(CCCCCO[C@H]4O[C@@H]5O[C@@]6(C)CCC7[C@H](C)CCC([C@H]4C)[C@]75OO6)cc[n+]3-c3ccc4ccccc4n3)O[C@@H]3O[C@@]4(C)CCC1[C@@]23OO4.[Cl-]` (stereo partly drawn) [Aubis(5-Quin)], the IC50 in series [1] (48 h) was 38 ± 9 nM; with Vero cell line it was 2000 nM. Turning to `Cc1cc(C)c(-[n+]2ccn(CCCO[C@H]3O[C@@H]4O[C@@]5(C)CCC6[C@H](C)CCC([C@H]3C)[C@]64OO5)c2)c(C)c1` (stereo partly drawn) [L3-Mes, 3′-Mesityl-1′-[10β-(20-propoxy)dihydroartemisinin]1H-imidazol-3-ium bromide], the half-inhibitory concentration (IC50) in series [1] (setting [2]) amounted to 655 ± 53 nM. On the same count and under the same terms, next, `C[C@@H]1CCC2[C@@H](C)[C@@H](OCCCCn3cc[n+](C)c3)O[C@@H]3O[C@@]4(C)CCC1[C@@]23OO4` (stereo partly drawn) [L4-Me, 3′-methyl-1′-[10β-(21-butoxy)-dihydroartemisinin]1H-imidazol-3-ium bromide]: 840 ± 64 nM. With `C[C@@H]1CCC2[C@@H](C)[C@@H](OCCCCCn3cc[n+](-c4ccc5ccccc5n4)c3)O[C@@H]3O[C@@]4(C)CCC1[C@@]23OO4` (stereo partly drawn) [L5-Quin, 3′-Quinolin-2-yl-1′-[10β-(22-pentoxy)dihydroartemisinin]1H-imidazol-3-ium bromide], the IC50 in series [1] (setting [2]) stood at 226 ± 29 nM. As to `C[C@@H]1CCC2[C@@H](C)[C@@H](OCCCn3cc[n+](Cc4ccccc4)c3)O[C@@H]3O[C@@]4(C)CCC1[C@@]23OO4` (stereo partly drawn) [L3-Bn, 3′-Benzyl-1′-[10β-(20-propoxy)dihydroartemisinin]1H-imidazol-3-ium bromide], the IC50 in series [1] (setting [2]) is 351 ± 56 nM. With `C[C@@H]1CCC2[C@@H](C)[C@@H](OCCCn3cc[n+](Cc4ccccc4)[c]3[Au-][c]3n(CCCO[C@H]4O[C@@H]5O[C@@]6(C)CCC7[C@H](C)CCC([C@H]4C)[C@]75OO6)cc[n+]3Cc3ccccc3)O[C@@H]3O[C@@]4(C)CCC1[C@@]23OO4.[Cl-]` (stereo partly drawn) [Aubis(3-Bn)], the IC50 in series [1] (48 h) turned out to be 22 ± 3 nM; in the series with Vero cell line it was 300 nM. The like results for `CC(C)[n+]1ccn(CCCO[C@H]2O[C@@H]3O[C@@]4(C)CCC5[C@H](C)CCC([C@H]2C)[C@]53OO4)[c]1[Au-][c]1n(CCCO[C@H]2O[C@@H]3O[C@@]4(C)CCC5[C@H](C)CCC([C@H]2C)[C@]53OO4)cc[n+]1C(C)C.[Cl-]` (stereo partly drawn) [Aubis(3-iPr)] were, in that order, 13 ± 5 nM and 700 nM. For the molecule `C[C@@H]1CCC2[C@@H](C)[C@@H](OCCCCn3cc[n+](-c4ccc5ccccc5n4)c3)O[C@@H]3O[C@@]4(C)CCC1[C@@]23OO4` (stereo partly drawn) [L4-Quin, 3′-Quinolin-2-yl-1′-[10β-(21-butoxy)dihydroartemisinin]1H-imidazol-3-ium bromide], the IC50 in series [1] (setting [2]) came to 330 ± 37 nM. Take `C[C@@H]1CCC2[C@@H](C)[C@@H](OCCCCn3cc[n+](-c4ccc5ccccc5n4)[c]3[Au-][c]3n(CCCCO[C@H]4O[C@@H]5O[C@@]6(C)CCC7[C@H](C)CCC([C@H]4C)[C@]75OO6)cc[n+]3-c3ccc4ccccc4n3)O[C@@H]3O[C@@]4(C)CCC1[C@@]23OO4.[Cl-]` (stereo partly drawn) [Aubis(4-Quin)]: the IC50 in series [1] (48 h) came out at 83 ± 31 nM.

On to `Cc1cc(C)c(-[n+]2ccn(CCCCCO[C@H]3O[C@@H]4O[C@@]5(C)CCC6[C@H](C)CCC([C@H]3C)[C@]64OO5)[c]2[Au-][c]2n(CCCCCO[C@H]3O[C@@H]4O[C@@]5(C)CCC6[C@H](C)CCC([C@H]3C)[C@]64OO5)cc[n+]2-c2c(C)cc(C)cc2C)c(C)c1.[Cl-]` (stereo partly drawn) [Aubis(5-Mes)], for which the IC50 in series [1] (48 h) was 100 ± 12 nM. Take `Cc1cc(C)c(-[n+]2ccn(CCCO[C@H]3O[C@@H]4O[C@@]5(C)CCC6[C@H](C)CCC([C@H]3C)[C@]64OO5)[c]2[Au-][c]2n(CCCO[C@H]3O[C@@H]4O[C@@]5(C)CCC6[C@H](C)CCC([C@H]3C)[C@]64OO5)cc[n+]2-c2c(C)cc(C)cc2C)c(C)c1.[Cl-]` (stereo partly drawn) [Aubis(3-Mes)]: the IC50 in series [1] (48 h) was 61 ± 37 nM; in the series on Vero cell line it was 500 nM.

Turning to `C[C@@H]1CCC2[C@@H](C)[C@@H](OCCCn3cc[n+](-c4ccc5ccccc5n4)[c]3[Au-][c]3n(CCCO[C@H]4O[C@@H]5O[C@@]6(C)CCC7[C@H](C)CCC([C@H]4C)[C@]75OO6)cc[n+]3-c3ccc4ccccc4n3)O[C@@H]3O[C@@]4(C)CCC1[C@@]23OO4.[Cl-]` (stereo partly drawn) [Aubis(3-Quin)], the IC50 came out at 23 ± 8 nM in series [1] (48 h) and 1200 nM with Vero cell line. With `C[C@@H]1CCC2[C@@H](C)[C@@H](OCCCCCn3cc[n+](C)c3)O[C@@H]3O[C@@]4(C)CCC1[C@@]23OO4` (stereo partly drawn) [L5-Me, 3′-methyl-1′-[10β-(22-pentoxy)-dihydroartemisinin]1H-imidazol-3-ium bromide], the IC50 in series [1] (setting [2]) was 172 ± 22 nM. The same measure, in the same setting: next, `CC(C)[n+]1ccn(CCCO[C@H]2O[C@@H]3O[C@@]4(C)CCC5[C@H](C)CCC([C@H]2C)[C@]53OO4)c1` (stereo partly drawn) [L3-iPr, 3′-Isopropyl-1′-[10β-(20-propoxy)dihydroartemisinin]1H-imidazol-3-ium bromide]: 335 ± 28 nM.

In the case of `C[C@@H]1CCC2[C@@H](C)[C@@H](OCCCCn3cc[n+](Cc4ccccc4)[c]3[Au-][c]3n(CCCCO[C@H]4O[C@@H]5O[C@@]6(C)CCC7[C@H](C)CCC([C@H]4C)[C@]75OO6)cc[n+]3Cc3ccccc3)O[C@@H]3O[C@@]4(C)CCC1[C@@]23OO4.[Cl-]` (stereo partly drawn) [Aubis(4-Bn)], the IC50 in series [1] (48 h) was determined as 40 ± 21 nM; with Vero cell line, 700 nM.

`C[C@@H]1CCC2[C@@H](C)[C@@H](OCCCn3cc[n+](C)c3)O[C@@H]3O[C@@]4(C)CCC1[C@@]23OO4` (stereo partly drawn) [L3-Me, 3′-methyl-1′-[10β-(20-propoxy)-dihydroartemisinin]1H-imidazol-3-ium bromide]: in series [1] (setting [2]), the IC50 stood at 935 ± 117 nM. For `CC(=O)OC[C@H]1O[C@@H]([S-])[C@H](OC(C)=O)[C@@H](OC(C)=O)[C@@H]1OC(C)=O.CCP(CC)CC.[Au+]` [Auranofin, reference compound], in series [1] (48 h), the IC50 is 1500 nM. Turning to `C[C@@H]1CCC2[C@@H](C)[C@@H](OCCCCn3cc[n+](Cc4ccccc4)c3)O[C@@H]3O[C@@]4(C)CCC1[C@@]23OO4` (stereo partly drawn) [L4-Bn, 3′-Benzyl-1′-[10β-(21-butoxy)dihydroartemisinin]1H-imidazol-3-ium bromide], the IC50 in series [1] (setting [2]) stood at 326 ± 44 nM. Regarding `C[C@@H]1CCC2[C@@H](C)[C@@H](OCCCCCn3cc[n+](Cc4ccccc4)[c]3[Au-][c]3n(CCCCCO[C@H]4O[C@@H]5O[C@@]6(C)CCC7[C@H](C)CCC([C@H]4C)[C@]75OO6)cc[n+]3Cc3ccccc3)O[C@@H]3O[C@@]4(C)CCC1[C@@]23OO4.[Cl-]` (stereo partly drawn) [Aubis(5-Bn)], the IC50 in series [1] (48 h) stood at 72 ± 14 nM; in the series on Vero cell line, 600 nM. The like results for `Cc1cc(C)c(-[n+]2ccn(CCCCO[C@H]3O[C@@H]4O[C@@]5(C)CCC6[C@H](C)CCC([C@H]3C)[C@]64OO5)[c]2[Au-][c]2n(CCCCO[C@H]3O[C@@H]4O[C@@]5(C)CCC6[C@H](C)CCC([C@H]3C)[C@]64OO5)cc[n+]2-c2c(C)cc(C)cc2C)c(C)c1.[Cl-]` (stereo partly drawn) [Aubis(4-Mes)] were, in that order, 38 ± 3 nM and 700 nM.

Turning to `Cc1cc(C)c(-[n+]2ccn(CCCCO[C@H]3O[C@@H]4O[C@@]5(C)CCC6[C@H](C)CCC([C@H]3C)[C@]64OO5)c2)c(C)c1` (stereo partly drawn) [L4-Mes, 3′-Mesityl-1′-[10β-(21-butoxy)dihydroartemisinin]1H-imidazol-3-ium bromide], in series [1] (setting [2]), the IC50 came out at 219 ± 18 nM.

These data come from paper PMC7356589, “Hybrid Gold(I) NHC-Artemether Complexes to Target Falciparum Malaria Parasites” (Molecules, 2020).
